Reference: PubChem BioAssay AID1963846 (Molecular Pharmacology Branch, DTP, NCI, 2024)

Tested on: 454973-116-R2-J3-PDC complex spheroid viability
Assay: Anticancer human tumor 454973-116-R2-J3-PDC patient-derived pancreatic carcinoma cell line growth inhibition [POLQ]
Settings: for IC50: curve of first compound; for viability, T/C: stronger effect = lower value; active means viability on the fitted dose curve at most 10% of control; inactive means the rest
Summary of the method: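 Three-cell-type spheroids modelling solid tumor plus stroma served as the readout system; POL inhibitors were tested individually and in combination, concentration ranges set by clinical Cmax where known.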

[1] = second compound 0.0316 µM, first compound 0.0316 µM
[2] = second compound 0.0316 µM, first compound 0.1 µM
[3] = second compound 0.0316 µM, first compound 0.316 µM
[4] = second compound 0.0316 µM, first compound 1 µM
[5] = second compound 0.0316 µM, first compound 3.16 µM
[6] = second compound 0.0316 µM, first compound 10 µM
[7] = second compound 0.1 µM, first compound 0.0316 µM
[8] = second compound 0.1 µM, first compound 0.1 µM
[9] = second compound 0.1 µM, first compound 0.316 µM
[10] = second compound 0.1 µM, first compound 1 µM
[11] = second compound 0.1 µM, first compound 3.16 µM
[12] = second compound 0.1 µM, first compound 10 µM
[13] = second compound 0.316 µM, first compound 0.0316 µM
[14] = second compound 0.316 µM, first compound 0.1 µM
[15] = second compound 0.316 µM, first compound 0.316 µM
[16] = second compound 0.316 µM, first compound 1 µM
[17] = second compound 0.316 µM, first compound 3.16 µM
[18] = second compound 0.316 µM, first compound 10 µM
[19] = second compound 1 µM, first compound 0.0316 µM
[20] = second compound 1 µM, first compound 0.1 µM
[21] = second compound 1 µM, first compound 0.316 µM
[22] = second compound 1 µM, first compound 1 µM
[23] = second compound 1 µM, first compound 3.16 µM
[24] = second compound 1 µM, first compound 10 µM
[25] = second compound 3.16 µM, first compound 0.0316 µM
[26] = second compound 3.16 µM, first compound 0.1 µM
[27] = second compound 3.16 µM, first compound 0.316 µM
[28] = second compound 3.16 µM, first compound 1 µM
[29] = second compound 3.16 µM, first compound 3.16 µM
[30] = second compound 3.16 µM, first compound 10 µM
[31] = second compound 10 µM, first compound 0.0316 µM
[32] = second compound 10 µM, first compound 0.1 µM
[33] = second compound 10 µM, first compound 0.316 µM
[34] = second compound 10 µM, first compound 1 µM
[35] = second compound 10 µM, first compound 3.16 µM
[36] = second compound 10 µM, first compound 10 µM
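Further: spheroids exposed to drugs for seven days before measurement.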
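Wherever viability, T/C is given: percent viability relative to DMSO vehicle control wells taken as 100%.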

CC(=O)O[C@H]1C(=O)[C@@]2(C)[C@H]([C@H](OC(=O)c3ccccc3)[C@]3(O)C[C@H](OC(=O)[C@H](O)[C@@H](NC(=O)c4ccccc4)c4ccccc4)C(C)=C1C3(C)C)[C@]1(OC(C)=O)CO[C@@H]1C[C@@H]2O + Nc1ccc(C#CCN(C(=O)Cc2ncc(C(F)(F)F)cc2C(F)(F)F)c2ccc(F)cc2)nn1
active: viability, T/C (second compound 0.0316 µM, first compound 0.00949 µM) 6.03% | viability, T/C (second compound 0.0316 µM, first compound 0.03 µM) 5.37% | viability, T/C (second compound 0.0316 µM, first compound 0.0949 µM) 4.33% | viability, T/C (second compound 0.0316 µM, first compound 0.3 µM) 4.12% | viability, T/C (second compound 0.0316 µM, first compound 0.949 µM) 5.17% | viability, T/C (second compound 0.0316 µM, first compound 3 µM) 4.92% | viability, T/C (second compound 0.1 µM, first compound 0.00949 µM) 6.43% | viability, T/C (second compound 0.1 µM, first compound 0.03 µM) 5.72% | viability, T/C (second compound 0.1 µM, first compound 0.0949 µM) 5.37% | viability, T/C (second compound 0.1 µM, first compound 0.3 µM) 3.72% | viability, T/C (second compound 0.1 µM, first compound 0.949 µM) 4.36% | viability, T/C (second compound 0.1 µM, first compound 3 µM) 5.13% | viability, T/C (second compound 0.316 µM, first compound 0.00949 µM) 6.26% | viability, T/C (second compound 0.316 µM, first compound 0.03 µM) 5.71% | viability, T/C (second compound 0.316 µM, first compound 0.0949 µM) 3.79% | viability, T/C (second compound 0.316 µM, first compound 0.3 µM) 4.86% | viability, T/C (second compound 0.316 µM, first compound 0.949 µM) 4.32% | viability, T/C (second compound 0.316 µM, first compound 3 µM) 5.03% | viability, T/C (second compound 1 µM, first compound 0.00949 µM) 6.64% | viability, T/C (second compound 1 µM, first compound 0.03 µM) 7.67% | viability, T/C (second compound 1 µM, first compound 0.0949 µM) 5.72% | viability, T/C (second compound 1 µM, first compound 0.3 µM) 4.36% | viability, T/C (second compound 1 µM, first compound 0.949 µM) 4.31% | viability, T/C (second compound 1 µM, first compound 3 µM) 4.88% | viability, T/C (second compound 3.16 µM, first compound 0.00949 µM) 6.84% | viability, T/C (second compound 3.16 µM, first compound 0.03 µM) 4.76% | viability, T/C (second compound 3.16 µM, first compound 0.0949 µM) 4.25% | viability, T/C (second compound 3.16 µM, first compound 0.3 µM) 4.05% | viability, T/C (second compound 3.16 µM, first compound 0.949 µM) 5.59% | viability, T/C (second compound 3.16 µM, first compound 3 µM) 4.37% | viability, T/C (second compound 10 µM, first compound 0.00949 µM) 6.5% | viability, T/C (second compound 10 µM, first compound 0.03 µM) 4.13% | viability, T/C (second compound 10 µM, first compound 0.0949 µM) 4.66% | viability, T/C (second compound 10 µM, first compound 0.3 µM) 4.52% | viability, T/C (second compound 10 µM, first compound 0.949 µM) 4.25% | viability, T/C (second compound 10 µM, first compound 3 µM) 4.89%
< 9.49 nM: IC50 (second compound 0.0316 µM) | IC50 (second compound 0.1 µM) | IC50 (second compound 0.316 µM) | IC50 (second compound 1 µM) | IC50 (second compound 3.16 µM) | IC50 (second compound 10 µM)

COc1cc(C2c3cc4c(cc3C(OC3OC5COC(C)OC5C(O)C3O)C3COC(=O)C23)OCO4)cc(OC)c1O (stereo unspecified) + Nc1ccc(C#CCN(C(=O)Cc2ncc(C(F)(F)F)cc2C(F)(F)F)c2ccc(F)cc2)nn1
inactive: viability, T/C [1] 98.2% | viability, T/C [2] 94.3% | viability, T/C [3] 78.4% | viability, T/C [4] 50.9% | viability, T/C [5] 14.2% | viability, T/C [7] 107% | viability, T/C [8] 102% | viability, T/C [9] 84.1% | viability, T/C [10] 49.8% | viability, T/C [11] 12.3% | viability, T/C [13] 98.5% | viability, T/C [14] 106% | viability, T/C [15] 82.7% | viability, T/C [16] 42.6% | viability, T/C [17] 15.1% | viability, T/C [19] 112% | viability, T/C [20] 94.6% | viability, T/C [21] 79.1% | viability, T/C [22] 44.3% | viability, T/C [23] 12.8% | viability, T/C [25] 107% | viability, T/C [26] 109% | viability, T/C [27] 80.3% | viability, T/C [28] 42% | viability, T/C [29] 12.3% | viability, T/C [31] 115% | viability, T/C [32] 104% | viability, T/C [33] 79.3% | viability, T/C [34] 43.5% | viability, T/C [35] 10.6%
817 nM: IC50 (second compound 0.316 µM)
785 nM: IC50 (second compound 1 µM)
923 nM: IC50 (second compound 0.1 µM)
active: viability, T/C [6] 8.22% | viability, T/C [12] 7.75% | viability, T/C [18] 5.73% | viability, T/C [24] 7.26% | viability, T/C [30] 5.16% | viability, T/C [36] 5.67%
775 nM: IC50 (second compound 3.16 µM)
771 nM: IC50 (second compound 10 µM)
934 nM: IC50 (second compound 0.0316 µM)

O=c1[nH]cc(F)c(=O)[nH]1 + Nc1ccc(C#CCN(C(=O)Cc2ncc(C(F)(F)F)cc2C(F)(F)F)c2ccc(F)cc2)nn1
1550 nM: IC50 (second compound 3.16 µM) | IC50 (second compound 10 µM)
1850 nM: IC50 (second compound 0.316 µM)
1730 nM: IC50 (second compound 0.0316 µM)
1310 nM: IC50 (second compound 1 µM)
inactive: viability, T/C [1] 108% | viability, T/C [2] 116% | viability, T/C [3] 102% | viability, T/C [4] 67% | viability, T/C [5] 28.6% | viability, T/C [6] 33.2% | viability, T/C [7] 105% | viability, T/C [8] 103% | viability, T/C [9] 97.4% | viability, T/C [10] 69.2% | viability, T/C [11] 27.2% | viability, T/C [12] 30.2% | viability, T/C [13] 107% | viability, T/C [14] 106% | viability, T/C [15] 103% | viability, T/C [16] 71% | viability, T/C [17] 29.2% | viability, T/C [18] 33.9% | viability, T/C [19] 108% | viability, T/C [20] 102% | viability, T/C [21] 109% | viability, T/C [22] 56.1% | viability, T/C [23] 28.1% | viability, T/C [24] 32.1% | viability, T/C [25] 120% | viability, T/C [26] 117% | viability, T/C [27] 106% | viability, T/C [28] 63.5% | viability, T/C [29] 25.4% | viability, T/C [30] 32.5% | viability, T/C [31] 119% | viability, T/C [32] 118% | viability, T/C [33] 115% | viability, T/C [34] 63.7% | viability, T/C [35] 24.3% | viability, T/C [36] 31.1%
1740 nM: IC50 (second compound 0.1 µM)
